In one data set the test system is MKP1. Kind of data set: Immunoblot of MKP1 in MM.1 S cells. To be noted: 10 μM, 0-6 hours. It is filed as cell-based. The procedure:
(§1) 5×10^6 were cells treated with 10 μM 8-NH2-Ado for the indicated times and harvested. Cell pellets were washed with cold phosphate-buffered saline (PBS; 8.1 g NaCl, 1.14 g Na2HPO4, 0.22 g KCl, and 0.25 g/L KH2PO4) and incubated with lysis buffer (50 mM HEPES, 150 mM NaCl, 1.5 mM MgCl2, 1 mM EDTA pH 8.0, 100 mM NaFI, 10 mM Na Pyrophosphate, 500 μM PMSF, 0.5% Triton X-100, 10% glycerol) at 4° C. for one hour. Lysates were centrifuged at 4° C. for 1 minute at 9000×g, and the supernatants were collected and stored at −20° C. Protein concentration was determined by Bio-Rad protein assay (BioRad Laboratories, Hercules, Calif.). Protein, at a concentration of 30 μg, was mixed with sample buffer (125 mM Tris, pH 6.8, 4% SDS, 20% glycerol, 100 mM Dithiothreitol (DTT), and 0.05% bromophenol blue), and fractionated on a pre-cast 8-16% Tris-Glycine gel (Invitrogen/Novex, Carlsbad, Calif.). […]
One possible mechanism for the decrease in phosphorylation of the kinase molecules and their substrates is an increase in the activity of the phosphatase(s) that regulate them. To test this hypothesis, levels of MKPI, a dual specificity phosphatase that can act to dephosphorylate p38 MAPK, were assessed MM.1 S cells were exposed to 10 μM 8-NH2-Ado for 0, 0.5, 1, 2, 4 and 6 hours after which cells were lysed as previously described. […]
A general note: A western blot detects proteins with antibodies after separation by electrophoresis.

A further data set relates to MM cells. To be noted: cited from earlier work.
In data set [1] the test system is p38 in RPMI-8226, MDR10V and MM.1 R cells. The experiment in a line: Phosphorylation of p38 in additional myeloma cell lines. Type of data set: cell-based. Particulars: data not shown. The procedure: as §1
The effect of 8-NH2-Ado treatment on phosphorylation levels was assessed in additional myeloma cell lines, to determine whether the drug-induced alterations in protein phosphorylation occur in multiple cells lines or are limited to the MM.1 S myeloma cell line.

The subject of the next data set is MM.1 S cells. The experiment in a line: Cell cycle analysis by flow cytometry (subG1 fraction). It is filed as cell-based. To be noted: 10 μM, up to 4 hours. The procedure:
MM1 S cells were incubated with 10 μM 8-NH2-adenosine 0.5, 1, 2, 4 or 24 hours. To determine the distribution of cells within the cell cycle, I×10^6 MM. I S cells were pelleted (500×g for 5 minutes at 4° C.), and washed twice in ice-cold PBS, fixed in ice-cold 70% ethanol, and stored at 4° C. until analyzed. Before analysis by flow cytometry, the fixed cells were pelleted, washed in PBS, and resuspended in ice-cold flow buffer (PBS containing 0.5% Tween 20, 15 μg/mL propidium iodide, and 5 μg/mL DNase-free RNase). The stained cells were analyzed using an Epics Profile II flow cytometer (Coulter Electronics, Inc., Hialeah, Fla.). FIG. 2 provides the results of this experiment. To ascertain whether the changes in phosphorylation levels of these key signaling molecules is a direct result of cell death, parallel cultures were assessed for cellular viability by cell cycle analysis. Cells undergoing apoptosis have a reduced DNA content caused by cleavage and loss of small DNA fragments. Therefore, apoptotic cells are identified as those cells in the subG1 fraction of the cell cycle.
For orientation: Flow cytometry measures light scatter and fluorescence of single cells or particles in a stream.

A further data set concerns FKHR. Kind of data set: Immunoblot of phospho-FKHR in MM.1 S cells. It is filed as cell-based. To be noted: 10 μM, data not shown. The procedure: (§2) 5×10^6 were cells treated with 10 μM 8-NH2-Ado for the indicated times and harvested. Cell pellets were washed with cold phosphate-buffered saline (PBS; 8.1 g NaCl, 1.14 g Na2HPO4, 0.22 g KCl, and 0.25 g/L KH2PO4) and incubated with lysis buffer (50 mM HEPES, 150 mM NaCl, 1.5 mM MgCl2, 1 mM EDTA pH 8.0, 100 mM NaFI, 10 mM Na Pyrophosphate, 500 μM PMSF, 0.5% Triton X-100, 10% glycerol) at 4° C. for one hour. Lysates were centrifuged at 4° C. for 1 minute at 9000×g, and the supernatants were collected and stored at −20° C. Protein concentration was determined by Bio-Rad protein assay (BioRad Laboratories, Hercules, Calif.). Protein, at a concentration of 30 μg, was mixed with sample buffer (125 mM Tris, pH 6.8, 4% SDS, 20% glycerol, 100 mM Dithiothreitol (DTT), and 0.05% bromophenol blue), and fractionated on a pre-cast 8-16% Tris-Glycine gel (Invitrogen/Novex, Carlsbad, Calif.). Proteins were then transferred to a Polyvinylidene Fluoride (PVDF) membrane (Immobilon-P, Millipore, Bedford, Mass.): Following protein transfer, membranes were blocked with 5% non-fat milk in PBS-T (PBS with 0.1% Tween), incubated with the primary antibody overnight at 4° C. and subsequently with horseradish peroxidase linked secondary antibody (Amersham, Arlington Heights, Ill.). […]

For the next data set, the system named is p38 MAPK. Kind of data set: Immunoblot of phospho-p38 MAPK in MM.1 S cells. Type of data set: cell-based. Particulars: 10 μM. On the procedure: 5×10^6 were cells treated with 10 μM 8-NH2-Ado for the indicated times and harvested. Cell pellets were washed with cold phosphate-buffered saline (PBS; 8.1 g NaCl, 1.14 g Na2HPO4, 0.22 g KCl, and 0.25 g/L KH2PO4) and incubated with lysis buffer (50 mM HEPES, 150 mM NaCl, 1.5 mM MgCl2, 1 mM EDTA pH 8.0, 100 mM NaFI, 10 mM Na Pyrophosphate, 500 μM PMSF, 0.5% Triton X-100, 10% glycerol) at 4° C. for one hour. Lysates were centrifuged at 4° C. for 1 minute at 9000×g, and the supernatants were collected and stored at −20° C. Protein concentration was determined by Bio-Rad protein assay (BioRad Laboratories, Hercules, Calif.). Protein, at a concentration of 30 μg, was mixed with sample buffer (125 mM Tris, pH 6.8, 4% SDS, 20% glycerol, 100 mM Dithiothreitol (DTT), and 0.05% bromophenol blue), and fractionated on a pre-cast 8-16% Tris-Glycine gel (Invitrogen/Novex, Carlsbad, Calif.). Proteins were then transferred to a Polyvinylidene Fluoride (PVDF) membrane (Immobilon-P, Millipore, Bedford, Mass.): Following protein transfer, membranes were blocked with 5% non-fat milk in PBS-T (PBS with 0.1% Tween), incubated with the primary antibody overnight at 4° C. and subsequently with horseradish peroxidase linked secondary antibody (Amersham, Arlington Heights, Ill.). Blots were developed using ECL Plus Chemiluminescent Western Blotting Detection reagent (Amersham, Arlington Heights, Ill.) and the signal was visualized with X-ray film (Hyperfilm, Amersham, Arlington Heights, Ill.). For reprobing purposes, blots were stripped using Restore Western Blot Stripping Buffer from Pierce Biotechnology (Rockford, Ill.). Phospho-MKK3/6 (Ser189/207), phospho-p38 (Thr180/Tyr182), phospho-ATF-2 (Thr69/71), phospho-c-Raf (Ser259), phospho-MEK1/2 (Ser217/221), total MEK1/2, phospho-ERK1/2 (Thr202/Tyr204), total ERK1/2, phospho-p90RSK (Ser380), total RSK, phospho-PDK1 (Ser241), total PDKI, phospho-PTEN (Ser380), total PTEN, phospho-Akt (Ser473), total Akt, phospho-GSK-3β (Ser9), total GSK-3β, phospho-FKHRLI (Thr32)/-FKHR (Thr24), phospho-FKHR (Ser256) primary antibodies were obtained from Cell Signaling Technology (Beverly, Mass.). Total MKK3, total MKK6, total p38, total ATF-2, total c-Raf, total FKHR, total FKHRLI, phospho-JNK and total JNK were purchased from Santa Cruz Biotechnology (Santa Cruz, Calif.). Caspase 3, caspase 9, and PARP antibodies were obtained from Pharmingen (San Diego, Calif.) and anti-MKP1 from Upstate (Lake Placid, N.Y.). Anti-caspase 8 mouse serum was a generous gift of Dr. Marcus Peter (University of Chicago).
MM.1 S cells were exposed to 10 μM 8-NH2-Ado for 0, 0.5, 1, 2, 4 and 6 hours, after which cells were lysed as previously (Example 2). 30 μg of protein was separated by gel electrophoresis, transferred to PVDF membrane, and probed with phosphorylation-specific antibodies to MKK3/6, p38 MAPK, ATF-2, MEK1/2, ERK1/2, p90RSK, JNK1, PDK1, Akt, FKHRL1 and GSK-3β. […] FIGS. 1A, 1B, 1C and 1D provide the results of the blots.
MM. I S cells were treated with 10 μM 8-chloro-adenosine for 0, 0.5, 1, 2, 4 or 6 hours or 10 μM of cytarabine, fludarabine, gemcitabine or 8-amino-adenosine for 4 hours. Cells were lysed as previously described and 30 μg of protein was separated by gel electrophoresis, transferred to PVDF membrane, and probed with phospho-p38 MAPK (Thr180/Tyr182) antibody.
In a parallel approach to test the involvement of cellular phosphatases, we treated MM.1 S cells with varying concentrations of the phosphatase inhibitor okadaic acid in combination with 8-NH2-Ado for 4 hours to assess whether the serine/threonine phosphatases PP2A and PPI are involved.

The next data set has as its system FKHRL1. Kind of data set: Immunoblot of phospho-FKHRL1 in MM.1 S cells. It is filed as cell-based. Particulars: 10 μM. On the procedure: as §2
The test system of another data set is p90RSK. Kind of data set: Immunoblot of phospho-p90RSK in MM.1 S cells. It is filed as cell-based. Particulars: 10 μM, 0-6 hours. On the procedure:
as §2

`Nc1ncnc2c1nc(N)n2[C@@H]1O[C@H](CO)[C@@H](O)[C@H]1O` [8-NH2-Ado, 8-amino-adenosine]: the MKP1 levels result with MKP1 was “unaltered”. The cytotoxicity entry in the data set on MM cells is listed as “affected by the cytotoxic ability”. Besides, in data set [1], the “Phosphorylation levels of p38” value was “decrease in a dose-dependent manner”. Moreover, the “subG1 fraction versus untreated cells” value with MM.1 S cells is listed as “no differences”. Further, the FKHR phosphorylation result with FKHR is “similarly affected”. In addition, in the data set with p38 MAPK (4 hours), the “phosphorylation of p38” value is “dramatic loss of phosphorylation”. The values for the p38 phosphorylation levels result in the data set with p38 MAPK (after 2 hours) and in the data set on p38 MAPK (by 1 hour) were “no appreciable phosphorylation” and “dramatically reduced”, respectively. Also, the FKHRLI phosphorylation result is “no appreciable phosphorylation” in the data set on FKHRL1 (at 4 and 6 hours); “decreases dramatically” in the data set on FKHRL1 (by 2 hours). The “phosphorylation level of p90RSK” value in the data set with p90RSK was “modestly decrease”.
